Test results: patent US9999625B2, “Pyrrolobenzodiazepine compounds” (FEMTOGENIX LIMITED, priority 2014, dated 2018)
“Also recorded” adds a separate entry of the source.

Assays:
[1] = system: STAT3 consensus sequence (5′-GACATTGC-3′); assay: HPLC assay of DNA adduct formation; format: binding; conditions: 4:1 ligand:oligonucleotide, room temperature, UV 254 nm
Text: (§1) The interactions of C1-linked PBD core compound (42), […] C1-linked PBD dimer compound (51) were studied with duplex transcription factor consensus sequences. For the C1-linked PBD core compound (42) and C1-linked PBD dimer compound (51) the study used a STAT3 consensus sequence (5′-GACATTGC-3′). Whereas for the C1-linked PBD monomer compound (49), an NF-KB consensus sequence (5′-GGGACAGCCC-3′) was used in the study. The interactions of each of the three compounds were studied with an HPLC assay utilizing a X-bridge MS […] Oligonucleotide Separation Technology (OST) column (2.3×50 mm) and a gradient of 40% acetonitrile/water and 100 mM TEAB ([…])/water as mobile phase with a flow rate of 0.5 mL/min and UV detection at 254 nm. A 4:1 molar ratio of ligand:oligonucleotide was used, with each single-stranded oligonucleotide dissolved in 1M ammonium acetate to form stock solutions of 1 mM. The oligonucleotides were initially annealed by heating their 1 mM solutions to 70° C. for 10 mins followed by gradual cooling over 8 hours and storage overnight at −20° C. Working solutions of oligonucleotides of 25 μM were then prepared by diluting the annealed stock solutions with 100 mM ammonium acetate. The ligands were dissolved in DMSO to form a stock solution of 10 mM which was stored at −20° C. for no longer than four months. Working solutions of the drug of 100 μM were prepared by diluting the stock solution with 100 mM ammonium acetate. The working solutions of the ligands were added to the working solution the oligonucleotides at RT, and the mixture incubated for different time intervals at room temperature. […] The chromatograms for HPLC assays using C1-linked PBD core (42), monomer (49) and dimer (51) compounds are shown in FIGS. 7, 8 and 9 respectively.

[2] = system: MDA MB231 (triple negative human breast cancer); assay: Cytotoxicity by MTT assay; format: cell-based; conditions: 72 hours exposure, MDA MB 231
Procedure: MDA MB231 (triple negative human breast cancer) was obtained from the American Type Culture Collection. The cell-line was maintained in monolayer culture in 75 cm^2 flasks (TPP, Switzerland) under a humidified 5% CO2 atmosphere at 37° C. The MDA MB231 cell line was maintained in high glucose (Dulbecco's Modified Eagle Medium) DMEM (4.5 g\l; Invitrogen), foetal bovine serum (10%, Biosera UK), non-essential amino acids (ix; Invitrogen), L-glutamine (2 mM; Invitrogen) and Penicillin-Streptomycin (1% v/v, Invitrogen). For passaging, cells were washed with PBS [Phosphate-Buffered Saline] […] For seeding, cells were counted using a Neubauer haemocytometer (Assistant, Germany) by microscopy (Nikon, USA) on a non-adherent suspension of cells that were washed in PBS, trypsinised, centrifuged at 8° C. at 8000 rpm for 5 min and re-suspended in fresh medium.
The cells were grown in normal cell culture conditions at 37° C. under a 5% CO2 humidified atmosphere using appropriate medium. […] After 72 h of continuous exposure to each compound, the cytotoxicity was determined using the 3-(4,5-Dimethylthiazol-2-yl)-2,5-diphenyltetrazolium bromide (MTT) (Lancaster Synthesis Ltd, UK) colorimetric assay. Absorbance was quantified by spectrophotometry at λ=570 nm (Envision Plate Reader, PerkinElmer, USA). IC50 values were calculated by a dose-response analysis using the Prism GraphPad Prism® software. […]

[3] = system: NF-KB consensus sequence (5′-GGGACAGCCC-3′); assay: HPLC assay of DNA adduct formation; format: binding; conditions: 4:1 ligand:oligonucleotide, room temperature, UV 254 nm
Text: as §1

[4] = system: cancer cell lines; conditions: cited from earlier work

SMILES | DNA adduct formation (HPLC chromatogram) [1] | IC50 [2] [nM] | DNA adduct formation (HPLC chromatogram) [3] | activity against some cancer cell lines [4]
COc1cc2c(cc1OC)C(=O)N1CC[C@H](O)[C@H]1C=N2 [Compound 42, (1S,11aR)-1-Hydroxy-7,8-dimethoxy-1,2,3,11a-tetrahydro-5H-benzo[e]pyrrolo[1,2-a][1,4]diazepin-5-one] | evidence of DNA adduct formation; also recorded: interacted with the DNA consensus sequence to form adducts | – | – | –
COc1cc2c(cc1OC)C(=O)N1CC[C@H](OCCCO[C@H]3CCN4C(=O)c5cc(OC)c(OC)cc5N=C[C@H]34)[C@H]1C=N2 [Compound 51, (1S,1′S)-1,1′-(Propane-1,3-diylbis(oxy))bis(7,8-dimethoxy-1,2,3,11a-tetrahydro-5H-benzo[e]pyrrolo [1,2-a][1,4]diazepin-5-one)] | evidence of DNA adduct formation; also recorded: interacted with the DNA consensus sequence to form adducts | 236 ± 27 | – | –
COC(=O)c1cc(-c2ccc(NC(=O)c3nc(NC(=O)CO[C@H]4CCN5C(=O)c6cc(OC)c(OC)cc6N=C[C@H]45)cn3C)cc2)cn1C [Compound 49, Methyl 4-(4-(4-(2-(((1S,11aR)-7,8-dimethoxy-5-oxo-2,3,5,11a-tetrahydro-1H-benzo[e]pyrrolo[1,2-a][1,4]diazepin-1-yl)oxy)acetamido)-1-methyl-1H-imidazole-2-carboxamido)phenyl)-1-methyl-1H-pyrrole-2-carboxylate] | – | 36 ± 2.3 | evidence of DNA adduct formation; also recorded: interacted with the DNA consensus sequence to form adducts | –
COC(=O)c1cc(-c2ccc(NC(=O)c3nc(NC(=O)CCCOc4cc5c(cc4OC)C(=O)N4CCC[C@H]4C=N5)cn3C)cc2)cn1C [KMR-28-39] | – | – | – | femtomolar activity
